Patent publication US6461997B1, “Triazole sulfones having herbicidal activity” (Monsanto Technology LLC, priority 1999, dated 2002)

What was measured:
AVEFA (wild oat) = test: Pre-plant incorporated (PPI) herbicidal activity, cool season; format: in vivo, Avena fatua; conditions: for inhibition at 30 g/ha / inhibition at 100 g/ha / inhibition at 300 g/ha / inhibition at 900 g/ha / inhibition at 10 g/ha: Avena fatua, read-out: Percent inhibition AVEFA; for inhibition at 30 g/ha / inhibition at 100 g/ha / inhibition at 300 g/ha / inhibition at 900 g/ha / Percent inhibition AVEFA / inhibition at 10 g/ha: weed, PPI application; for PPI activity GR80, AVEFA: pre-plant incorporated, lowest tested rate with 80% or greater inhibition, about 14 days
Procedure: (§1) In another set of tests, the pre-plant incorporated (PPI) activity of compounds of this invention was evaluated on the same species as for the pre-emergence tests described above. In the PPI tests the following procedure, designed to simulate PPI application, was used.
(§2) A pre-prepared topsoil mixture (described above) was placed in a pot and compacted to a depth of 1.0 to 1.25 cm from the top of the pot. Seeds of each of several monocotyledonous and dicotyledonous annual plant species were placed on top of the soil. A sufficient quantity of soil to cover the seeds and level fill the pot was weighed into an open container. A known amount of the test compound was dissolved or suspended in an organic solvent and applied by spraying to this cover soil. The cover soil was thoroughly mixed to distribute the test compound throughout the cover soil, and was then applied as a cover layer over the seeds. Untreated soil was used as a cover layer for control pots. After treatment the plants were placed in a greenhouse where they received 0.64 cm of overhead irrigation. All subsequent watering consisted of a light overhead mist and/or subirrigation as needed for germination and growth. Tables 9 and 10 below relate to warm season plant species which were placed after pre-emergence treatment in a greenhouse with a 30/21° C. day/night temperature regime. Tables 11 and 12 below relates to cool season plant species placed after pre-emergence treatment in a greenhouse or growth chamber with an 18/13° C. day/night temperature regime. Only the compounds of Examples 1, 6, 8, 11, 13 and 15-20 were included in PPI tests.
(§3) Approximately 14 days after planting and treating, the plants were observed and herbicidal efficacy recorded as percent inhibition by comparison with untreated plants.

oilseed rape (BRSNS) = test: Selectivity test, PPI, cool season crop; format: in vivo, Brassica napus; conditions: PPI application; for inhibition at 30 g/ha / inhibition at 100 g/ha / inhibition at 300 g/ha / inhibition at 900 g/ha / inhibition at 10 g/ha: Brassica napus, read-out: Percent inhibition BRSNS
Procedure: as §2, §3
Additional pre-emergence and PPI tests were conducted by the procedures described above, on warm and cool season weed species in the presence of crop species, to assess herbicidal selectivity. Crop species included in warm season tests were corn (Zea mays, ZEAMX), rice (Oryza sativa, ORYSA) and soybean (Glycine max, GLYMX). Crop species included in cool season tests were wheat (Triticum aestivum, TRZAW), barley (Hordeunm vulgare, HORVX) and oilseed rape (Brassica napus, BRSNS).
Tables 15 and 16 relate to pre-emergence and PPI tests respectively on warm season species. Table 17 relates to pre-emergence tests on cool season species.

LOLMG (annual ryegrass) = test: Pre-plant incorporated (PPI) herbicidal activity, cool season; format: in vivo, Lolium multiflorum; conditions: for inhibition at 30 g/ha / inhibition at 100 g/ha / inhibition at 300 g/ha / inhibition at 900 g/ha / inhibition at 10 g/ha: Lolium multiflorum, read-out: Percent inhibition LOLMG; for inhibition at 30 g/ha / inhibition at 100 g/ha / inhibition at 300 g/ha / inhibition at 900 g/ha / Percent inhibition LOLMG / inhibition at 10 g/ha: weed, PPI application; for PPI activity GR80, LOLMG: pre-plant incorporated, lowest tested rate with 80% or greater inhibition, about 14 days
Procedure: as §1, §2, §3

[1] = test system: BRAPP (broadleaf signalgrass); test: Pre-emergence herbicidal activity, warm season; format: in vivo, Brachiaria platyphylla; conditions: for Pre-emergence activity (GR80) BRAPP: GR80 = lowest tested rate (300, 100, 30, 10 g/ha) with 80% or greater inhibition, approx. 14 days after treating, 30/21° C.
In short: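 Activity is expressed as the rate giving 80% inhibition, with 300, 100, 30 and 10 g/ha typically tested. An asterisk marks activity short of 80% at the top rate. Warm-season grasses were held at 30/21 °C; cool-season blackgrass and wild buckwheat at 18/13 °C; scoring at about 14 days.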

BROTE (downy brome) = test: Pre-plant incorporated (PPI) herbicidal activity, cool season; format: in vivo, Bromus tectorum; conditions: for inhibition at 30 g/ha / inhibition at 100 g/ha / inhibition at 300 g/ha / inhibition at 900 g/ha / inhibition at 10 g/ha: Bromus tectorum, read-out: Percent inhibition BROTE; for inhibition at 30 g/ha / inhibition at 100 g/ha / inhibition at 300 g/ha / inhibition at 900 g/ha / Percent inhibition BROTE / inhibition at 10 g/ha: weed, PPI application; for PPI activity GR80, BROTE: pre-plant incorporated, lowest tested rate with 80% or greater inhibition, about 14 days
Procedure: as §1, §2, §3

[2] = Urochloa platyphylla, pre-emergence application, read-out: Percent inhibition, weed BRAPP

SMILES	inhibition at 30 g/ha (AVEFA (wild oat); 30 g/ha)	inhibition at 100 g/ha (AVEFA (wild oat); 100 g/ha)	inhibition at 300 g/ha (AVEFA (wild oat); 300 g/ha)	inhibition at 900 g/ha (AVEFA (wild oat); 900 g/ha)	PPI activity GR80, AVEFA (AVEFA (wild oat))	inhibition at 30 g/ha (oilseed rape (BRSNS); 30 g/ha)	inhibition at 100 g/ha (oilseed rape (BRSNS); 100 g/ha)	inhibition at 300 g/ha (oilseed rape (BRSNS); 300 g/ha)	inhibition at 900 g/ha (oilseed rape (BRSNS); 900 g/ha)	inhibition at 30 g/ha (LOLMG (annual ryegrass); 30 g/ha)	inhibition at 100 g/ha (LOLMG (annual ryegrass); 100 g/ha)	inhibition at 300 g/ha (LOLMG (annual ryegrass); 300 g/ha)	inhibition at 900 g/ha (LOLMG (annual ryegrass); 900 g/ha)	PPI activity GR80, LOLMG (LOLMG (annual ryegrass))	Pre-emergence activity (GR80) BRAPP [1]	inhibition at 30 g/ha (BROTE (downy brome); 30 g/ha)	inhibition at 100 g/ha (BROTE (downy brome); 100 g/ha)	inhibition at 300 g/ha (BROTE (downy brome); 300 g/ha)	inhibition at 900 g/ha (BROTE (downy brome); 900 g/ha)	PPI activity GR80, BROTE (BROTE (downy brome))	other results
CCN(CC)C(=O)n1cnc(S(=O)(=O)C(F)(F)Br)n1 [Example 1, 3-(bromodifluoromethylsulfonyl)-1-(N,N-diethylcarbamoyl)-1,2,4-triazole]	0%	20%	95%	90%	300 g/ha	60%	20%	99%	100%	95%	95%	100%	100%	300 g/ha	* (activity observed, at least at highest rate, but <80% inhibition)	0%	20%	50%	100%	300 g/ha	inhibition at 10 g/ha [1, 2]: 0%; inhibition at 30 g/ha [1, 2]: 0%; inhibition at 100 g/ha [1, 2]: 40%; inhibition at 300 g/ha [1, 2]: 70%
CCN(CC)C(=O)n1cnc(S(=O)(=O)C(F)(F)C(F)(F)SC)n1 [Example 14]															300 g/ha						
CCN(CC)C(=O)n1cnc(S(=O)(=O)C(F)(F)F)n1 [Example 2]															300 g/ha						Percent inhibition AVEFA (AVEFA (wild oat); 30 g/ha): 0%; Percent inhibition AVEFA (AVEFA (wild oat); 100 g/ha): 10%; Percent inhibition AVEFA (AVEFA (wild oat); 300 g/ha): 20%; Percent inhibition AVEFA (AVEFA (wild oat); 900 g/ha): 50%; Percent inhibition BRSNS (oilseed rape (BRSNS); 30 g/ha): 0%; Percent inhibition BRSNS (oilseed rape (BRSNS); 100 g/ha): 80%; Percent inhibition BRSNS (oilseed rape (BRSNS); 300 g/ha): 100%; Percent inhibition BRSNS (oilseed rape (BRSNS); 900 g/ha): 100%; Percent inhibition LOLMG (LOLMG (annual ryegrass); 30 g/ha): 40%; Percent inhibition LOLMG (LOLMG (annual ryegrass); 100 g/ha): 99%; Percent inhibition LOLMG (LOLMG (annual ryegrass); 300 g/ha): 100%; Percent inhibition LOLMG (LOLMG (annual ryegrass); 900 g/ha): 100%; Percent inhibition BROTE (BROTE (downy brome); 30 g/ha): 0%; Percent inhibition BROTE (BROTE (downy brome); 100 g/ha): 40%; Percent inhibition BROTE (BROTE (downy brome); 300 g/ha): 50%; Percent inhibition BROTE (BROTE (downy brome); 900 g/ha): 100%
C=C(C)CC(F)(F)S(=O)(=O)c1ncn(C(=O)N(CC)CC)n1 [Example 18]	0%	10%	50%	99%	300 g/ha	0%		20%	100%	60%	50%	100%	100%	100 g/ha	300 g/ha	0%	0%	20%	90%	300 g/ha	inhibition at 10 g/ha (AVEFA (wild oat); 10 g/ha): 0%; inhibition at 10 g/ha (oilseed rape (BRSNS); 10 g/ha): 0%; inhibition at 10 g/ha (LOLMG (annual ryegrass); 10 g/ha): 20%; inhibition at 10 g/ha (BROTE (downy brome); 10 g/ha): 0%
CCSC(F)(F)S(=O)(=O)c1ncn(C(=O)N(CC)CC)n1 [Example 8, 1-(N,N-diethylcarbamoyl)-3-[difluoro(ethylthio)methylsulfonyl]-1,2,4-triazole]	10%	75%	95%	100%	100 g/ha	0%	0%	40%	100%	35%	100%	100%	100%	100 g/ha	100 g/ha	0%	0%	65%	99%	300 g/ha	
C=C(Br)CC(F)(F)S(=O)(=O)c1ncn(C(=O)N(CC)CC)n1 [Example 19]	0%	30%	70%	60%	300 g/ha	0%	0%	60%	95%	70%	100%	100%	100%	300 g/ha	300 g/ha	20%	20%	60%	95%	300 g/ha	inhibition at 10 g/ha (AVEFA (wild oat); 10 g/ha): 0%; inhibition at 10 g/ha (oilseed rape (BRSNS); 10 g/ha): 0%; inhibition at 10 g/ha (LOLMG (annual ryegrass); 10 g/ha): 30%; inhibition at 10 g/ha (BROTE (downy brome); 10 g/ha): 0%
CCN(CC)C(=O)n1cnc(S(=O)(=O)C(F)(F)SCC(=O)OC)n1 [Example 11]					[empty]									[empty]						[empty]	Percent inhibition AVEFA (AVEFA (wild oat); 10 g/ha): 0%; Percent inhibition AVEFA (AVEFA (wild oat); 30 g/ha): 0%; Percent inhibition AVEFA (AVEFA (wild oat); 100 g/ha): 0%; Percent inhibition AVEFA (AVEFA (wild oat); 300 g/ha): 0%; Percent inhibition AVEFA (AVEFA (wild oat); 900 g/ha): 60%; Percent inhibition BRSNS (oilseed rape (BRSNS); 10 g/ha): 0%; Percent inhibition BRSNS (oilseed rape (BRSNS); 30 g/ha): 0%; Percent inhibition BRSNS (oilseed rape (BRSNS); 100 g/ha): 0%; Percent inhibition BRSNS (oilseed rape (BRSNS); 300 g/ha): 0%; Percent inhibition BRSNS (oilseed rape (BRSNS); 900 g/ha): 0%; Percent inhibition LOLMG (LOLMG (annual ryegrass); 10 g/ha): 20%; Percent inhibition LOLMG (LOLMG (annual ryegrass); 30 g/ha): 40%; Percent inhibition LOLMG (LOLMG (annual ryegrass); 100 g/ha): 70%; Percent inhibition LOLMG (LOLMG (annual ryegrass); 300 g/ha): 99%; Percent inhibition LOLMG (LOLMG (annual ryegrass); 900 g/ha): 95%; Percent inhibition BROTE (BROTE (downy brome); 10 g/ha): 0%; Percent inhibition BROTE (BROTE (downy brome); 30 g/ha): 0%; Percent inhibition BROTE (BROTE (downy brome); 100 g/ha): 0%; Percent inhibition BROTE (BROTE (downy brome); 300 g/ha): 0%; Percent inhibition BROTE (BROTE (downy brome); 900 g/ha): 20%
CCN(CC)C(=O)n1cnc(S(=O)(=O)C(F)F)n1 [Example 15, 1-(N,N-diethylcarbamoyl)-3-(difluoromethylsulfonyl)-1,2,4-triazole]					300 g/ha									100 g/ha	300 g/ha					* (activity observed, at least at highest rate, but <80% inhibition)	inhibition at 10 g/ha [1, 2]: 0%; inhibition at 30 g/ha [1, 2]: 0%; inhibition at 100 g/ha [1, 2]: 40%; inhibition at 300 g/ha [1, 2]: 50%; inhibition at 900 g/ha ([1]; Urochloa platyphylla, pre-emergence application, 900 g/ha, read-out: Percent inhibition, weed BRAPP): 85%
CCN(CC)C(=O)n1cnc(S(=O)(=O)C(F)(F)C(=O)c2ccccc2)n1 [Example 6]					300 g/ha									300 g/ha	* (activity observed, at least at highest rate, but <80% inhibition)					* (activity observed, at least at highest rate, but <80% inhibition)	
